Test results as given in PubChem BioAssay AID1845208 (Molecular Pharmacology Branch, DTP, NCI, 2023).

Test system: NCI-H196 SCLC complex tumor spheroid viability
Experiment: Anticancer human tumor NCI-H196 cell line growth inhibition;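 further: spheroids exposed to compounds for 7 days before readout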;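 on viability, T/C: 100% = DMSO vehicle control wells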
Details: for IC50: curve of first compound; for viability, T/C: stronger effect = lower value
Outline: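 Single agents and combinations were tested on spheroids built from tumor cells plus HUVEC and hMSC, at half-log dilutions starting at or near clinical Cmax, else 10 microM; final DMSO 0.25% (v/v).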

[1] = second compound 30 pM, first compound 0.0316 µM
[2] = second compound 30 pM, first compound 0.1 µM
[3] = second compound 30 pM, first compound 0.316 µM
[4] = second compound 30 pM, first compound 1 µM
[5] = second compound 30 pM, first compound 3.16 µM
[6] = second compound 30 pM, first compound 10 µM
[7] = second compound 94.9 pM, first compound 0.0316 µM
[8] = second compound 94.9 pM, first compound 0.1 µM
[9] = second compound 94.9 pM, first compound 0.316 µM
[10] = second compound 94.9 pM, first compound 1 µM
[11] = second compound 94.9 pM, first compound 3.16 µM
[12] = second compound 94.9 pM, first compound 10 µM
[13] = second compound 0.0003 µM, first compound 0.0316 µM
[14] = second compound 0.0003 µM, first compound 0.1 µM
[15] = second compound 0.0003 µM, first compound 0.316 µM
[16] = second compound 0.0003 µM, first compound 1 µM
[17] = second compound 0.0003 µM, first compound 3.16 µM
[18] = second compound 0.0003 µM, first compound 10 µM
[19] = second compound 0.000949 µM, first compound 0.0316 µM
[20] = second compound 0.000949 µM, first compound 0.1 µM
[21] = second compound 0.000949 µM, first compound 0.316 µM
[22] = second compound 0.000949 µM, first compound 1 µM
[23] = second compound 0.000949 µM, first compound 3.16 µM
[24] = second compound 0.000949 µM, first compound 10 µM
[25] = second compound 0.003 µM, first compound 0.0316 µM
[26] = second compound 0.003 µM, first compound 0.1 µM
[27] = second compound 0.003 µM, first compound 0.316 µM
[28] = second compound 0.003 µM, first compound 1 µM
[29] = second compound 0.003 µM, first compound 3.16 µM
[30] = second compound 0.003 µM, first compound 10 µM
[31] = second compound 0.003 µM, first compound 0.00949 µM
[32] = second compound 0.003 µM, first compound 0.03 µM
[33] = second compound 0.003 µM, first compound 0.0949 µM
[34] = second compound 0.003 µM, first compound 0.3 µM
[35] = second compound 0.003 µM, first compound 0.949 µM
[36] = second compound 0.003 µM, first compound 3 µM

In the case of `[2H]c1nc(C)nc([2H])c1-c1cc(NC[C@@H](C)c2cccc3c(C(=O)NC)ccnc23)ncn1` + COc1cc2c(cc1O)CCNC21CSC2c3c(OC(C)=O)c(C)c4c(c3C(COC1=O)N1C(O)C3Cc5cc(C)c(OC)c(O)c5C(C21)N3C)OCO4, the IC50 (second compound 30 pM) is reported as greater than 10000 nM, the IC50 (second compound 94.9 pM) is reported as greater than 10000 nM and the IC50 (second compound 0.0003 µM) is reported as greater than 10000 nM. The IC50 (second compound 0.000949 µM) was greater than 10000 nM, the IC50 (second compound 0.003 µM) was less than 31.6 nM and the viability, T/C [1] was 102%. For the same molecule, the viability, T/C [2] was 102%, the viability, T/C [3] was 101% and the viability, T/C [4] was 104%. The viability, T/C [5] was 99.4%, the viability, T/C [6] was 97.6% and the viability, T/C [7] was 105%. It also gave a viability, T/C [8] of 108%, a viability, T/C [9] of 101% and a viability, T/C [10] of 106%. It also gave a viability, T/C [11] of 97.8%, a viability, T/C [12] of 104% and a viability, T/C [13] of 102%. It also gave a viability, T/C [14] of 106%, a viability, T/C [15] of 106% and a viability, T/C [16] of 105%. It also gave a viability, T/C [17] of 104%, a viability, T/C [18] of 105% and a viability, T/C [19] of 92.5%. It also gave a viability, T/C [20] of 86%, a viability, T/C [21] of 88.2% and a viability, T/C [22] of 83.5%. For the same molecule, the viability, T/C [23] was 83.4%, the viability, T/C [24] was 93.7% and the viability, T/C [25] was 5.55%. It also gave a viability, T/C [26] of 6.42%, a viability, T/C [27] of 3.96% and a viability, T/C [28] of 6.02%. For the same molecule, the viability, T/C [29] was 4.53% and the viability, T/C [30] was 2.75%.
In the case of `Cc1sc2c(c1C)C(c1ccc(Cl)cc1)=NC(CC(=O)Nc1ccc(O)cc1)c1nnc(C)n1-2` (stereo not given) + CC[C@@]1(O)C(=O)OCc2c1cc1n(c2=O)Cc2cc3c(CN(C)C)c(O)ccc3nc2-1, the IC50 (second compound 0.003 µM) is reported as 613 nM, the IC50 (second compound 0.00949 µM) is reported as 688 nM and the IC50 (second compound 0.03 µM) is reported as 656 nM. For the same molecule, the IC50 (second compound 0.0949 µM) was 755 nM, the IC50 (second compound 0.3 µM) was 373 nM and the viability, T/C [31] was 98.8%. The viability, T/C [32] was 101%, the viability, T/C [33] was 86.2% and the viability, T/C [34] was 70.2%. The viability, T/C [35] was 37.8%, the viability, T/C [36] was 19.2% and the viability, T/C (second compound 0.00949 µM, first compound 0.00949 µM) was 98.7%. It also gave a viability, T/C (second compound 0.00949 µM, first compound 0.03 µM) of 96.1%, a viability, T/C (second compound 0.00949 µM, first compound 0.0949 µM) of 86.8% and a viability, T/C (second compound 0.00949 µM, first compound 0.3 µM) of 76.6%. The viability, T/C (second compound 0.00949 µM, first compound 0.949 µM) was 39.1%, the viability, T/C (second compound 0.00949 µM, first compound 3 µM) was 23.7% and the viability, T/C (second compound 0.03 µM, first compound 0.00949 µM) was 96.1%. For the same molecule, the viability, T/C (second compound 0.03 µM, first compound 0.03 µM) was 84%, the viability, T/C (second compound 0.03 µM, first compound 0.0949 µM) was 80.3% and the viability, T/C (second compound 0.03 µM, first compound 0.3 µM) was 64.7%. It also gave a viability, T/C (second compound 0.03 µM, first compound 0.949 µM) of 41.8%, a viability, T/C (second compound 0.03 µM, first compound 3 µM) of 29.9% and a viability, T/C (second compound 0.0949 µM, first compound 0.00949 µM) of 98%. The viability, T/C (second compound 0.0949 µM, first compound 0.03 µM) was 93.6%, the viability, T/C (second compound 0.0949 µM, first compound 0.0949 µM) was 88.1% and the viability, T/C (second compound 0.0949 µM, first compound 0.3 µM) was 67.4%. For the same molecule, the viability, T/C (second compound 0.0949 µM, first compound 0.949 µM) was 46%, the viability, T/C (second compound 0.0949 µM, first compound 3 µM) was 32.3% and the viability, T/C (second compound 0.3 µM, first compound 0.00949 µM) was 92.3%. It also gave a viability, T/C (second compound 0.3 µM, first compound 0.03 µM) of 92.8%, a viability, T/C (second compound 0.3 µM, first compound 0.0949 µM) of 78.9% and a viability, T/C (second compound 0.3 µM, first compound 0.3 µM) of 49.8%. For the same molecule, the viability, T/C (second compound 0.3 µM, first compound 0.949 µM) was 40.1% and the viability, T/C (second compound 0.3 µM, first compound 3 µM) was 24.4%.
Molecule `COc1ccc([C@@H](O)c2cc(-c3ncnc4cc(N5CCOCC5)ccc34)c(F)cc2Cl)nn1` + COc1cc2c(cc1O)CCNC21CSC2c3c(OC(C)=O)c(C)c4c(c3C(COC1=O)N1C(O)C3Cc5cc(C)c(OC)c(O)c5C(C21)N3C)OCO4 has an IC50 (second compound 30 pM) of 9140 nM, an IC50 (second compound 94.9 pM) of 7240 nM and an IC50 (second compound 0.0003 µM) of 2970 nM. It also gave an IC50 (second compound 0.000949 µM) of 975 nM, an IC50 (second compound 0.003 µM) of less than 31.6 nM and a viability, T/C [1] of 103%. For the same molecule, the viability, T/C [2] was 94.9%, the viability, T/C [3] was 93.8% and the viability, T/C [4] was 77.8%. For the same molecule, the viability, T/C [5] was 62.6%, the viability, T/C [6] was 49% and the viability, T/C [7] was 106%. The viability, T/C [8] was 107%, the viability, T/C [9] was 93.6% and the viability, T/C [10] was 75.4%. It also gave a viability, T/C [11] of 60%, a viability, T/C [12] of 46% and a viability, T/C [13] of 99%. It also gave a viability, T/C [14] of 96.7%, a viability, T/C [15] of 91.1% and a viability, T/C [16] of 69.5%. The viability, T/C [17] was 50.2%, the viability, T/C [18] was 32.5% and the viability, T/C [19] was 81.8%. For the same molecule, the viability, T/C [20] was 80.6%, the viability, T/C [21] was 78.1% and the viability, T/C [22] was 45.3%. The viability, T/C [23] was 26.6%, the viability, T/C [24] was 9.62% and the viability, T/C [25] was 8.41%. The viability, T/C [26] was 3.38%, the viability, T/C [27] was 3.43% and the viability, T/C [28] was 0.71%. It also gave a viability, T/C [29] of 0.82% and a viability, T/C [30] of 0.59%.
Work on `Cn1ncnc1[C@H]1c2n[nH]c(=O)c3cc(F)cc(c23)N[C@@H]1c1ccc(F)cc1` + COc1cc2c(cc1O)CCNC21CSC2c3c(OC(C)=O)c(C)c4c(c3C(COC1=O)N1C(O)C3Cc5cc(C)c(OC)c(O)c5C(C21)N3C)OCO4 yielded an IC50 (second compound 30 pM) greater than 3000 nM, an IC50 (second compound 94.9 pM) greater than 3000 nM and an IC50 (second compound 0.0003 µM) greater than 3000 nM. For the same molecule, the IC50 (second compound 0.000949 µM) was greater than 3000 nM, the IC50 (second compound 0.003 µM) was less than 9.49 nM and the viability, T/C (second compound 30 pM, first compound 0.00949 µM) was 100%. The viability, T/C (second compound 30 pM, first compound 0.03 µM) was 99.3%, the viability, T/C (second compound 30 pM, first compound 0.0949 µM) was 98.6% and the viability, T/C (second compound 30 pM, first compound 0.3 µM) was 97%. For the same molecule, the viability, T/C (second compound 30 pM, first compound 0.949 µM) was 94.6%, the viability, T/C (second compound 30 pM, first compound 3 µM) was 92.4% and the viability, T/C (second compound 94.9 pM, first compound 0.00949 µM) was 99.3%. It also gave a viability, T/C (second compound 94.9 pM, first compound 0.03 µM) of 99.3%, a viability, T/C (second compound 94.9 pM, first compound 0.0949 µM) of 98.8% and a viability, T/C (second compound 94.9 pM, first compound 0.3 µM) of 98.6%. For the same molecule, the viability, T/C (second compound 94.9 pM, first compound 0.949 µM) was 92.7%, the viability, T/C (second compound 94.9 pM, first compound 3 µM) was 99% and the viability, T/C (second compound 0.0003 µM, first compound 0.00949 µM) was 102%. For the same molecule, the viability, T/C (second compound 0.0003 µM, first compound 0.03 µM) was 97.5%, the viability, T/C (second compound 0.0003 µM, first compound 0.0949 µM) was 101% and the viability, T/C (second compound 0.0003 µM, first compound 0.3 µM) was 93.5%. For the same molecule, the viability, T/C (second compound 0.0003 µM, first compound 0.949 µM) was 92.2%, the viability, T/C (second compound 0.0003 µM, first compound 3 µM) was 87.7% and the viability, T/C (second compound 0.000949 µM, first compound 0.00949 µM) was 92.3%. The viability, T/C (second compound 0.000949 µM, first compound 0.03 µM) was 85.1%, the viability, T/C (second compound 0.000949 µM, first compound 0.0949 µM) was 82% and the viability, T/C (second compound 0.000949 µM, first compound 0.3 µM) was 92.4%. It also gave a viability, T/C (second compound 0.000949 µM, first compound 0.949 µM) of 87%, a viability, T/C (second compound 0.000949 µM, first compound 3 µM) of 71.2% and a viability, T/C [31] of 6.21%. For the same molecule, the viability, T/C [32] was 7.26%, the viability, T/C [33] was 4.58% and the viability, T/C [34] was 3.69%. It also gave a viability, T/C [35] of 2.82% and a viability, T/C [36] of 1.01%.
